The values that follow come from patent publication US20230098111A1, “COMPOSITIONS AND METHODS TO TREAT NEUROLOGICAL DISEASES” (University of Southern California, priority 2020, published 2023).

For one data set, the system named is SOD1 A4V iMNs. Nature of the data set: Survival of SOD1 ALS iMNs. The format is cell-based, human. The following applies: neurotrophic factor withdrawal; DMSO or 3 uM apilimod. The method, then:
(§1) (A) Survival of control or SOD1 A4V iMNs with DMSO or 3 uM apilimod. (B) Survival of TDP-43 G298S iMNs with DMSO or 3 uM apilimod. (C) Survival of MAPT V337M or isogenic control iNs.
PIKFYVE inhibition rescues the survival of TARDBP ALS, SOD1 ALS, and MAPT FTD patient neurons. Since the accumulation of misfolded proteins is a common disease mechanism in all forms of ALS, FTD, and Alzheimer's disease, it was reasoned that inducing secretory autophagy might rescue neurodegeneration in diverse patients. iMNs were generated from ALS patients harboring mutations in TARDBP or SOD1 as well as NGN2-induced neurons (iNs) from MAPT^V337M FTD. […] 2 additional isogenic pairs of iPSC lines from MAPT FTD patients, 2 additional TARDBP ALS iPSC lines, and 2 additional SOD1 ALS iPSC lines were all obtained.

In another data set the test system is MAPT V337M iNs. Nature of the data set: Survival of MAPT FTD iNs. It is filed as cell-based, human. The following applies: DMSO or apilimod (3 uM in FIG. 28). The method, then: (A) Survival of C9ORF72 iNs with DMSO or apilimod. Log-rank test, 100 iNs per group. […] Log-rank test, 100 iNs per group. […] Mean+/−s.e.m. Kruskal-Wallis Test.
as §1
Mutations in MAPT cause FTD with tau aggregates. To determine if iNs from FTD patients display neurodegenerative phenotypes, an established method to generate cortical neurons from iPSCs by forced expression of NGN2 was used. 3 FTD patient iPSC lines harboring a MAPTV337M mutation and their CRISPR-edited isogenic controls from a published cell bank were utilized. Neurons from MAPT-mutant iPSCs display increased phosphorylated and oligomeric tau, similar to post-mortem patient tissue (FIG. 18A). […] Thus, MAPT iNs display key features of FTD with tau pathology.
PIKFYVE inhibition rescues the survival of TARDBP ALS, SOD1 ALS, and MAPT FTD patient neurons. Since the accumulation of misfolded proteins is a common disease mechanism in all forms of ALS, FTD, and Alzheimer's disease, it was reasoned that inducing secretory autophagy might rescue neurodegeneration in diverse patients. iMNs were generated from ALS patients harboring mutations in TARDBP or SOD1 as well as NGN2-induced neurons (iNs) from MAPT^V337M FTD. […]

Data set [1] relates to Drosophila larvae expressing GR dipeptide repeats. Nature of the data set: NMJ degeneration in poly(GR) Drosophila ALS model. The format is in vivo. The protocol: Apilimod (30 μM) was fed to control and larvae expressing 100× (A,C) or 36× (B,D) GR dipeptide repeats. […] Unpaired t-test. **p<0.01, ***p<0.001.
Testing the efficacy of PIKFYVE suppression in vivo. The fruit fly Drosophila is a powerful genetic system for studying the effects of ALS gene products on neuromuscular junction (NMJ) function. […] It was shown that overexpression of wild-type or mutant TDP-43, SOD1, or the C9ORF72 repeat expansion in Drosophila larvae causes neurodegeneration and an increase in the time required for larvae to right themselves after being turned on their dorsal side, reflecting a decrease in motor function (FIG. 30A-C). […] Overexpression of the C9ORF72 DPR poly(GR)(36 or 100 repeats) causes a dramatic reduction in synaptic arborization, active zone number, and synaptic strength at NMJs (FIG. 31A-D).

The test system of a further data set is C9-FTD iNs. Briefly: Exosome secretion from iNs. It is filed as cell-based, human. An excerpt:
(A) […] of exosomes from apilimod-treated C9-FTD iNs. (B) Western blot of TSG101, TDP-43, and Neurofilament heavy chain levels in the exosome fraction secreted from control or C9-FTD iNs upon apilimod treatment. (C,D) Quantification of the exosome marker TSG101 (C) or TDP-43 (D) in the exosome fraction of control and C9-FTD iNs treated with DMSO, apilimod, or apilimod+GW4869. Kruskal-Wallis test for B, C. N=3 biological replicates per condition, one line per genotype. (E) Number of poly(GR)-GFP+ exosomes secreted from iNs expressing exogenous poly(GR)-GFP upon DMSO or apilimod treatment. N=4 biological replicates. Exosomes were labeled with CFSE-red dye to enable detection by FACS. Unpaired t-test.
To test this, exosome release from iNs upon PIKFYVE inhibition was examined. […] Thus, PIKFYVE inhibition induces the secretion of TDP-43 and C9ORF72 DPRs from iNs
PIKFYVE inhibition rescues neurodegeneration through secretory autophagy.

In data set [2] the test system is C9ORF72 dipeptide repeat proteins. Briefly: DPR levels in C9ORF72-BAC mice. It is filed as in vivo. The protocol: DRP aggregates (Poly(GR) red) accumulate in the cells (white outline) of C9-BAC mice.
(A) Mass spectrometry analysis of Optineurin (OPTN) levels in the cerebrospinal fluide (CSF) of mice 2 hours after direct intracerebroventral injection of a vehicle control or apilimod. n=3 mice per group. The ratio of Optineurin in the CSF of apilimod:vehicle-injected mice is shown. (B) Poly(GR)+ DPR punctae in wild-type or C9ORF72 mice treated with intracerebroventricular injection of apilimod for 48 hours. Mean+/−s.e.m. Data points are individual neurons taken across 3 mice per group. One-way ANOVA. […] Unpaired t-test. (D) Pikfyve qRT-PCR of whole brain. n=3 mice per group at postnatal day 7. Unpaired t-test. (E) Gait impairment scoring in wild-type (WT) and TDP-43 homozygous mice treated with a negative control (NC) ASO or Pikfyve ASO at postnatal day 1. Mean+/−s.e.m. Unpaired t-test at each time point between the negative control and Pikfyve ASO conditions for TDP-43 mice. A score of 0 indicates no phenotype and 4 indicates the most severe phenotype. (F) Vehicle or GW4869 were delivered by intraperitoneal injection every 48 h starting from day 6 in negative control and Pikfyve ASO-treated mice. Mean+/−s.e.m. One-way ANOVA at each time point between the four conditions. *p<0.05, **p<0.01, ***p<0.001, ****p<0.0001.
PIKFYVE inhibition rescues neurodegeneration in vivo. […] Since TARDBP overexpressing mice show motor deficits and neurodegeneration, we used TARDBP mice to test the efficacy of Pikfyve suppression.
Determining whether PIKfyve-targeting ASOs can reverse ALS disease progression in vivo. To determine if PIKfyve-targeting ASOs can reverse ALS disease processes in vivo, can PIKfyve ASOs lower levels of C9ORF72 dipeptide repeat proteins in mice. Dipeptide repeat proteins are generated from the C9ORF72 repeat expansion by repeat-associated non-AUG-dependent translation and are neurotoxic.
To determine if ASO-mediated Pikfyve suppression lowers C9ORF72 poly(GR) levels in mice, Pikfyve ASOs were injected into the hippocampus of adult C9ORF72-BAC mice, which harbor a C9ORF72 repeat expanded transgene and accumulate poly(GR)+ aggregates in hippocampal neurons.

For the next data set, the system named is TDP-43. Briefly: Nuclear:cytoplasmic TDP-43 in sporadic ALS iMNs. As to conditions: DMSO or apilimod. It is filed as cell-based, human.
[3] abbreviates: apilimod 30 μM fed to larvae expressing poly(GR).
Setting [4] is: apilimod 30 μM fed to larvae expressing poly(GR), listed as Apilimod.
Setting [5] is: injection of apilimod into the hippocampus.

Structures are written as SMILES. “Also recorded” adds a separate entry of the source.

Method for control iMNs: Drug screening iMNs from both C90RF72 and sporadic ALS patients. […] Chemical screens were then performed to search for targets that can rescue the degeneration of iMNs from multiple patients. 2000 approved drugs and 1800 target-annotated tool compounds were screened on C9ORF72 ALS/FTD iMNs.

Take `Cc1cccc(/C=N/Nc2cc(N3CCOCC3)nc(OCCc3ccccn3)n2)c1` [apilimod]: the “control iMN survival” value in the data set with control iMNs is “did not”. For the same compound, the “survival of SOD1 ALS iMNs” value in the data set with SOD1 A4V iMNs is given as “rescued the survival”. Besides, the “survival of MAPT FTD iNs” value with MAPT V337M iNs is listed as “potently rescued; also recorded: rescued the survival”. Besides, in data set [1] (apilimod 30 μM), the NMJ degeneration result was “suppresses NMJ degeneration”. For the same compound, in data set [1] (setting [3]), the NMJ boutons result was “More active zones and NMJ boutons”; the “number of active zones at NMJ” value is reported as “More active zones”; the “synaptic strength (EPSP amplitude)” value was “enhanced synaptic strength”. Further, in data set [1] (setting [4]), the “number of active zones at NMJ” value is “partially rescues” and the “synaptic strength (EPSP amplitude)” value is “partially rescues”. Besides, the “release of TSG101+ exosomes from iNs” value in the data set on C9-FTD iNs (electron microscopy and western blotting) was “increased release of TSG101+ exosomes”. Further, the “poly(GR)-GFP+ exosomes released from iNs” value in the data set with C9-FTD iNs (iNs expressing poly(GR)50-GFP, FACS of CFSE-labelled exosomes) is reported as “released significantly more poly(GR)-GFP+ exosomes”. The “TDP-43 in exosomes from C9ORF72 FTD iNs” value with C9-FTD iNs (western blot of exosome fraction) is reported as “contained high levels of TDP-43”. In data set [2] (setting [5]), the “levels of poly(GR) in C9ORF72-BAC mice” value is listed as “reduced levels” and the “levels of poly(PR) in C9ORF72-BAC mice” value is recorded as “reduced levels”. Moreover, the “DPR levels in C9ORF72-BAC mice” value in data set [2] (intracerebroventricular injection of apilimod) is “lowered DPR levels”. For the same compound, in the data set with TDP-43, the “nuclear localization of TDP-43 in sporadic ALS iMNs” value is “rescued the nuclear localization of TDP-43”.
